Earlier results, collected in PubChem BioAssay AID1259409 (Chemical Carcinogenesis Research Information System (CCRIS), 2018).

System: rodent chemically induced tumor inhibition, incidence and multiplicity
Test: CCRIS tumor inhibitor studies
Details: Carcinogen: AZOXYMETHANE, 25843-45-2, Dose [Inhibitor]: 0, Route [Inhibitor]: ORAL, Species: RAT, Strain/Sex: F344/MALE, Dose [Carcinogen]: 15 MG/KG BW 1/WK FOR 3 WK, Promoter: NONE USED

## O=C(O)c1ccc(O)c(O)c1
500 PPM IN DIET FOR 4 WK BEGINNING 1 WK PRIOR TO CARCINOGEN TREATMENT (STUDY DURATION: 32 WK), Target Tissue: Type of Lesion: COLON: ADENOCARCINOMA
  tumour outcome (control, treated, inhibition, significance): 75%, 55%, 27%, not significant
500 PPM IN DIET FOR 4 WK BEGINNING 1 WK PRIOR TO CARCINOGEN TREATMENT (STUDY DURATION: 32 WK), Target Tissue: Type of Lesion: COLON: ADENOMA
  tumour outcome (control, treated, inhibition, significance): 10%, 5%, 50%, not significant
500 PPM IN DIET FOR 4 WK BEGINNING 1 WK PRIOR TO CARCINOGEN TREATMENT (STUDY DURATION: 32 WK), Target Tissue: Type of Lesion: LARGE INTESTINE: ADENOCARCINOMA
  tumour outcome (control, treated, inhibition, significance): 15/20 (75%), 11/20 (55%), 27%, not significant
500 PPM IN DIET FOR 4 WK BEGINNING 1 WK PRIOR TO CARCINOGEN TREATMENT (STUDY DURATION: 32 WK), Target Tissue: Type of Lesion: LARGE INTESTINE: ADENOMA
  tumour outcome (control, treated, inhibition, significance): 2/20 (10%), 1/20 (5%), 50%, not significant
500 PPM IN DIET FOR 4 WK BEGINNING 1 WK PRIOR TO CARCINOGEN TREATMENT (STUDY DURATION: 32 WK), Target Tissue: Type of Lesion: SMALL INTESTINE: ADENOCARCINOMA
  tumour outcome (control, treated, inhibition, significance): 6/20 (30%), 6/20 (30%), 0%, not significant
500 PPM IN DIET FOR 4 WK BEGINNING 1 WK PRIOR TO CARCINOGEN TREATMENT (STUDY DURATION: 32 WK), Target Tissue: Type of Lesion: SMALL INTESTINE: ADENOMA
  tumour outcome (control, treated, inhibition, significance): 1/20 (5%), 0/20 (0%), 100%, not significant
500 PPM IN DIET FOR 28 WK BEGINNING 1 WK POST CARCINOGEN TREATMENT (STUDY DURATION: 32 WK), Target Tissue: Type of Lesion: COLON: ADENOCARCINOMA
  tumour outcome (control, treated, inhibition, significance): 75%, 40%, 47%, not significant
500 PPM IN DIET FOR 28 WK BEGINNING 1 WK POST CARCINOGEN TREATMENT (STUDY DURATION: 32 WK), Target Tissue: Type of Lesion: LARGE INTESTINE: ADENOCARCINOMA
  tumour outcome (control, treated, inhibition, significance): 15/20 (75%), 8/20 (40%), 47%, not significant
500 PPM IN DIET FOR 28 WK BEGINNING 1 WK POST CARCINOGEN TREATMENT (STUDY DURATION: 32 WK), Target Tissue: Type of Lesion: LARGE INTESTINE: ADENOMA
  tumour outcome (control, treated, inhibition, significance): 2/20 (10%), 3/20 (15%), -50%, not significant
500 PPM IN DIET FOR 28 WK BEGINNING 1 WK POST CARCINOGEN TREATMENT (STUDY DURATION: 32 WK), Target Tissue: Type of Lesion: SMALL INTESTINE: ADENOCARCINOMA
  tumour outcome (control, treated, inhibition, significance): 6/20 (30%), 1/20 (5%), 83%, not significant
500 PPM IN DIET FOR 28 WK BEGINNING 1 WK POST CARCINOGEN TREATMENT (STUDY DURATION: 32 WK), Target Tissue: Type of Lesion: SMALL INTESTINE: ADENOMA
  tumour outcome (control, treated, inhibition, significance): 1/20 (5%), 0/20 (0%), 100%, not significant
1000 PPM IN DIET FOR 4 WK BEGINNING 1 WK PRIOR TO CARCINOGEN TREATMENT (STUDY DURATION: 32 WK), Target Tissue: Type of Lesion: COLON: ADENOCARCINOMA
  tumour outcome (control, treated, inhibition, significance): 75%, 30%, 60%, p<0.05
1000 PPM IN DIET FOR 4 WK BEGINNING 1 WK PRIOR TO CARCINOGEN TREATMENT (STUDY DURATION: 32 WK), Target Tissue: Type of Lesion: COLON: ADENOMA
  tumour outcome (control, treated, inhibition, significance): 10%, 9%, 10%, not significant
1000 PPM IN DIET FOR 4 WK BEGINNING 1 WK PRIOR TO CARCINOGEN TREATMENT (STUDY DURATION: 32 WK), Target Tissue: Type of Lesion: LARGE INTESTINE: ADENOCARCINOMA
  tumour outcome (control, treated, inhibition, significance): 15/20 (75%), 7/23 (30%), 60%, p<0.006
1000 PPM IN DIET FOR 4 WK BEGINNING 1 WK PRIOR TO CARCINOGEN TREATMENT (STUDY DURATION: 32 WK), Target Tissue: Type of Lesion: LARGE INTESTINE: ADENOMA
  tumour outcome (control, treated, inhibition, significance): 2/20 (10%), 2/23 (9%), 10%, not significant
1000 PPM IN DIET FOR 4 WK BEGINNING 1 WK PRIOR TO CARCINOGEN TREATMENT (STUDY DURATION: 32 WK), Target Tissue: Type of Lesion: SMALL INTESTINE: ADENOCARCINOMA
  tumour outcome (control, treated, inhibition, significance): 6/20 (30%), 8/23 (35%), -17%, not significant
1000 PPM IN DIET FOR 4 WK BEGINNING 1 WK PRIOR TO CARCINOGEN TREATMENT (STUDY DURATION: 32 WK), Target Tissue: Type of Lesion: SMALL INTESTINE: ADENOMA
  tumour outcome (control, treated, inhibition, significance): 1/20 (5%), 1/23 (4%), 20%, not significant
1000 PPM IN DIET FOR 28 WK BEGINNING 1 WK POST CARCINOGEN TREATMENT (STUDY DURATION: 32 WK), Target Tissue: Type of Lesion: COLON: ADENOCARCINOMA
  tumour outcome (control, treated, inhibition, significance): 75%, 22%, 71%, p<0.05
1000 PPM IN DIET FOR 28 WK BEGINNING 1 WK POST CARCINOGEN TREATMENT (STUDY DURATION: 32 WK), Target Tissue: Type of Lesion: COLON: ADENOMA
  tumour outcome (control, treated, inhibition, significance): 10%, 9%, 10%, not significant
1000 PPM IN DIET FOR 28 WK BEGINNING 1 WK POST CARCINOGEN TREATMENT (STUDY DURATION: 32 WK), Target Tissue: Type of Lesion: LARGE INTESTINE: ADENOCARCINOMA
  tumour outcome (control, treated, inhibition, significance): 15/20 (75%), 5/23 (22%), 71%, p<0.008
